Measurements as given in patent publication US20170273922A1, “UREA AND BIS-UREA BASED COMPOUNDS AND ANALOGUES THEREOF USEFUL IN THE TREATMENT OF ANDROGEN RECEPTOR MEDIATED DISEASES OR DISORDERS” (THE ROYAL INSTITUTION FOR THE ADVACEMENT OF LEARNING/MCGILL …, priority 2014, published 2017).

Experiments:
[1] = MTT assay (cytotoxicity), 22Rv1 cells; assay type: cell-based; details: human, 22Rv1 cells
Method: (§1) MTT assays: LNCaP, 22Rv1, Du145, H1975, A549, MB231 and MCF-7 cells are maintained in RPMI 1640 supplemented with 10% FBS. Cells were seeded at a density of 6-7×10^3 cells per well in 96-well plates. After overnight incubation, cells in fresh RPMI 1640 supplemented with 10% FBS were exposed to DMSO vehicle control or test compounds at designated concentrations for 72 h. Viable cells were evaluated by MTT assays. Experiments were performed in triplicate and repeated at least twice.

[2] = MTT assay (cytotoxicity), LNCaP cells; assay type: cell-based; details: human, LNCaP cells
Method: as §1

| SMILES | IC50 at 72 h ([1]; 72 h treatment, Table 6.1) | IC50 at 72 h ([2]; 72 h treatment, Table 6.1) | IC50 at 72 h ([2]; 72 h, Table 2.4) | IC50 at 72 h ([1]; 72 h, Table 2.3) | IC50 at 72 h ([2]; 72 h, Table 2.3) |
| --- | --- | --- | --- | --- | --- |
| O=C(Nc1cccc(C(F)(F)F)c1)Nc1ccc(F)c(NC(=O)Nc2ccccc2F)c1 [Compound 950] | 7.8 µM | 3.8 µM | – | – | – |
| O=C(N/C=C/c1cccc(OC(F)(F)F)c1)Nc1ccncn1 [Compound 875] | 8.8 µM | 4.6 µM | – | – | – |
| COc1cccc(NC(=O)N/C=C/c2cccs2)c1 [Compound 425] | – | – | > 20 µM | – | – |
| O=C(Nc1ccc(Br)cc1)Nc1ccc(F)c(NC(=O)c2cc(C(F)(F)F)ccc2F)c1 [Compound 963] | 4.7 µM | 2.4 µM | – | – | – |
| O=C(Nc1ccc(C(F)(F)F)cc1)Nc1cc(NC(=O)Nc2ccc(C(F)(F)F)cc2)cc(C(F)(F)F)c1 [Compound 955] | 0.9 µM | 1.5 µM | – | – | – |
| O=C(Nc1cccc(NC(=O)Nc2cccc(C(F)(F)F)c2)c1)Nc1cccc(C(F)(F)F)c1 [Compound 966] | 6.6 µM | – | – | – | – |
| O=C(Nc1cccc(NC(=O)c2ccc(F)cc2)c1)Nc1cccc(C(F)(F)F)c1 [Compound 915] | 10.6 µM | 9 µM | – | – | – |
| O=C(Nc1cccc(C(F)(F)F)c1)Nc1ccc(NC(=O)c2cc(F)ccc2F)c(C(F)(F)F)c1 [Compound 901] | 4.7 µM | 6.6 µM | – | – | – |
| O=C(Nc1cccc(C(F)(F)F)c1)Nc1ccccc1NC(=O)Nc1cccc(C(F)(F)F)c1 [Compound 967] | 3.1 µM | 2.7 µM | – | – | – |
| O=C(Nc1ccc(Br)cc1)Nc1cc(F)ccc1NC(=O)c1ccc(F)cc1F [Compound 962] | 4.9 µM | 5.3 µM | – | – | – |
| CN1CCN(c2cc(NC(=O)Nc3ccc(NC(=O)c4ccccc4F)c(C(F)(F)F)c3)cc(C(F)(F)F)c2)CC1 [Compound 862] | – | 3.4 µM | – | – | – |
| O=C(Nc1cccc(C(F)(F)F)c1)Nc1ccc(F)c(NC(=O)c2cccc(F)c2F)c1 [Compound 948] | 17.1 µM | 8 µM | – | – | – |
| O=C(Nc1cccc(C(F)(F)F)c1)Nc1ccc(F)c(NC(=O)c2cc(Cl)ccc2F)c1 [Compound 929] | 5.7 µM | 5.5 µM | – | – | – |
| O=C(Nc1cccc(C(F)(F)F)c1)Nc1ccc(NC(=O)c2cc(I)ccc2F)c(C(F)(F)F)c1 [Compound 952] | 7.8 µM | 5.2 µM | – | – | – |
| O=C(Nc1cccc(C(F)F)c1)Nc1ccc(NC(=O)c2cc(F)ccc2F)c(C(F)(F)F)c1 [Compound 930] | 5.6 µM | 8.2 µM | – | – | – |
| O=C(Nc1ccc(C(F)(F)F)cc1)Nc1ccc(NC(=O)c2ccccc2F)c(C(F)(F)F)c1 [Compound 897] | 7 µM | 1.9 µM | – | – | – |
| O=C(Nc1cccc(C(F)(F)F)c1)Nc1cc(NC(=O)c2ccccc2F)cc(C(F)(F)F)c1 [Compound 928] | 2 µM | 2.4 µM | – | – | – |
| O=C(Nc1cccc(C(F)(F)F)c1)Nc1ccc(NC(=O)c2cc(Cl)ccc2F)c(C(F)(F)F)c1 [Compound 907] | 4.2 µM | 4.2 µM | – | – | – |
| O=C(N/C=C/c1cccs1)Nc1ccc2c(c1)OCO2 [Compound 426] | – | – | > 20 µM | – | – |
| O=C(Nc1cccc(F)c1)Nc1cc(NC(=O)Nc2cccc(F)c2)cc(C(F)(F)F)c1 [Compound 964] | 1.8 µM | 2.4 µM | – | – | – |
| O=C(Nc1cccc(C(F)(F)F)c1)Nc1cc(C(=O)O)cc(C(F)(F)F)c1 [Compound 949] | 32.9 µM | 2.9 µM | – | – | – |
| O=C(Nc1cc(F)cc(C(F)(F)F)c1)Nc1ccc(NC(=O)c2ccccc2F)c(C(F)(F)F)c1 [Compound 878] | 3.2 µM | 3.4 µM | – | – | – |
| O=C(Nc1cc(N2CCOCC2)cc(C(F)(F)F)c1)Nc1ccc(NC(=O)c2ccccc2F)c(C(F)(F)F)c1 [Compound 861] | – | 9.7 µM | – | – | – |

| SMILES | IC50 at 72 h ([1]; 72 h treatment, Table 6.1) | IC50 at 72 h ([2]; 72 h treatment, Table 6.1) | IC50 at 72 h ([2]; 72 h, Table 2.4) | IC50 at 72 h ([1]; 72 h, Table 2.3) | IC50 at 72 h ([2]; 72 h, Table 2.3) |
| --- | --- | --- | --- | --- | --- |
| O=C(N/C=C/c1cc(C(F)(F)F)cc(C(F)(F)F)c1)Nc1ccc2[nH]ccc2c1 [Compound 516] | – | – | – | > 10 µM | > 10 µM |
| O=C(Nc1cccc(C(F)F)c1)Nc1ccc(NC(=O)c2cc(C(F)(F)F)ccc2F)c(C(F)(F)F)c1 [Compound 941] | 3.6 µM | 5.4 µM | – | – | – |
| O=C(Nc1cccc(NC(=O)c2cccc(F)c2)c1)Nc1cccc(C(F)(F)F)c1 [Compound 914] | 8.7 µM | 7.3 µM | – | – | – |
| N#Cc1ccc(NC(=O)NCC(=O)c2ccc(F)cc2)cc1C(F)(F)F [Compound 982] | – | – | 4.6 µM | – | – |
| O=C(Nc1cccc(C(F)(F)F)c1)Nc1ccc(NC(=O)Nc2cccc(F)c2)c(C(F)(F)F)c1 [Compound 905] | 11.4 µM | 5.5 µM | – | – | – |
| O=C(Nc1cccc(C(F)(F)F)c1)Nc1ccc(NC(=O)c2c(F)cccc2F)c(C(F)(F)F)c1 [Compound 900] | 10.4 µM | > 10 µM | – | – | – |
| O=C(Nc1cccc(C(F)(F)F)c1)Nc1ccc(F)c(NC(=O)c2c(F)cccc2F)c1 [Compound 913] | 14.2 µM | 12.3 µM | – | – | – |
| O=C(Nc1cccc(C(F)(F)F)c1)Nc1ccc(NC(=O)c2cccnc2F)c(C(F)(F)F)c1 [Compound 911] | 10 µM | 13.8 µM | – | – | – |
| O=C(Nc1cccc(C(F)F)c1)Nc1ccc(NC(=O)c2ccc(F)cc2F)c(C(F)(F)F)c1 [Compound 945] | 7.1 µM | 7.3 µM | – | – | – |
| O=C(Nc1cccc(C(F)(F)F)c1)Nc1ccc(NC(=O)c2ccc(F)cc2F)c(C(F)(F)F)c1 [Compound 902] | 4.5 µM | 7.4 µM | – | – | – |
| O=C(Nc1ccc(C(F)(F)F)cc1)Nc1ccc(F)c(NC(=O)c2ccc(F)cc2F)c1 [Compound 956] | 9.5 µM | 3.5 µM | – | – | – |
| O=C(Nc1cccc(F)c1)Nc1cc(F)ccc1NC(=O)c1ccc(F)cc1F [Compound 965] | 7.7 µM | 4.3 µM | – | – | – |
| O=C(Nc1cccc(C(F)(F)F)c1)Nc1ccc(F)c(NC(=O)c2cc(C(F)(F)F)ccc2F)c1 [Compound 944] | 4.5 µM | 5.5 µM | – | – | – |
| O=C(Nc1cccc(C(F)(F)F)c1)Nc1ccc(NC(=O)Nc2ccc(F)cc2)c(C(F)(F)F)c1 [Compound 898] | 5.1 µM | 1.4 µM | – | – | – |
| O=C(Nc1cccc(C(F)(F)F)c1)Nc1ccc(F)c(NC(=O)c2cc(F)ccc2F)c1 [Compound 942] | 7.1 µM | 5.7 µM | – | – | – |
| O=C(Nc1ccc(NC(=O)c2ccccc2F)c(C(F)(F)F)c1)Nc1ccccc1C(F)(F)F [Compound 896] | 18.9 µM | 5.2 µM | – | – | – |
| O=C(Nc1cccc(C(F)(F)F)c1)Nc1ccc(NC(=O)c2cc(C(F)(F)F)ccc2F)c(C(F)(F)F)c1 [Compound 903] | 5 µM | 6.8 µM | – | – | – |
| O=C(Nc1cccc(C(F)(F)F)c1)Nc1ccc(F)c(NC(=O)c2cccc(F)c2)c1 [Compound 946] | 9.5 µM | 8.4 µM | – | – | – |
| O=C(N/C=C/c1cccc(C(F)(F)F)c1)NCc1cccc(C(F)(F)F)c1 [Compound 460] | – | – | 7.9 µM | – | – |
| O=C(Nc1cccc(C(F)(F)F)c1)Nc1ccc(NC(=O)c2ccc(N3CCOCC3)cc2F)c(C(F)(F)F)c1 [Compound 879] | 6.8 µM | 6.3 µM | – | – | – |
| N#Cc1ccc(NC(=O)NCC(=O)c2cccc(C(F)(F)F)c2)cc1C(F)(F)F [Compound 937] | – | – | 7.3 µM | – | – |
| O=C(Nc1ccc(F)c(NC(=O)c2ccc(F)cc2F)c1)Nc1ccccc1C(F)(F)F [Compound 960] | 5.7 µM | – | – | – | – |
| O=C(N/C=C/c1c[nH]cn1)Nc1ccc([N+](=O)[O-])c(C(F)(F)F)c1 [Compound 454] | – | – | > 10 µM | – | – |
